The values that follow come from PMC8301576 (Clinical and Translational Science, 2021).

SMILES strings stand for the structures. Values joined by “and” are separate entries in the source; they are usually repeats but may differ in a detail not shown here. Identical values can stand only once. Like-named read-outs stand apart in the source and are kept apart here.

One series in a line: Plasma protein binding. The class given is in vitro ADME.
A short description of series [1]: Earlier clinical data on TLV and DM-4103. The class given is in vivo, human. To be noted: from elimination half-life.
In the next series the target is T1, OAT3 (Homo sapiens, UniProt Q8TCC7).
T1 sequence (Q8TCC7 1-542): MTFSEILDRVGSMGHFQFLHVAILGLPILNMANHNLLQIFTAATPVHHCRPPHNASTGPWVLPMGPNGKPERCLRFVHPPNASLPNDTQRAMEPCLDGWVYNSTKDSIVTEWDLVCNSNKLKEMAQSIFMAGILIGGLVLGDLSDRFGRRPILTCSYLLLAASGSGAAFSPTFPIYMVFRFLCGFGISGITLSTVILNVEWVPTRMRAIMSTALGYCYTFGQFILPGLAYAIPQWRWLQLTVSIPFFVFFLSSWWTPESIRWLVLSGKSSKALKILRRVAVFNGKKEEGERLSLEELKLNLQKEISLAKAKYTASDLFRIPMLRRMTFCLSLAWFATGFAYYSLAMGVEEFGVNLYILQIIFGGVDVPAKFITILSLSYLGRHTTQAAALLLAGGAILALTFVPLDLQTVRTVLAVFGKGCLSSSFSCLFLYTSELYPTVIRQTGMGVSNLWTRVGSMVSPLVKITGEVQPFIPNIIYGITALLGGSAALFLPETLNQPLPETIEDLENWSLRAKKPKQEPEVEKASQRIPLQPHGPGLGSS
Nature of the series: Trial 2: clinical DDI, furosemide in presence of DM-4103 vs furosemide alone. The class given is in vivo. The settings on record: at clinically relevant concentrations.

Series [2] can be described thus: Trial 1: plasma pharmacokinetics in healthy subjects. The class given is in vivo, human.
A short description of series [3]: Trial 2: plasma pharmacokinetics in healthy subjects. The class given is in vivo, human. The settings on record: 48 h postdose after 7 days 300 mg TLV q.d.
For series [4] the following is noted: cited from earlier work.
A further series deals with T2, OATP1B1 (Homo sapiens, UniProt Q9Y6L6).
T2 sequence (Q9Y6L6 1-691): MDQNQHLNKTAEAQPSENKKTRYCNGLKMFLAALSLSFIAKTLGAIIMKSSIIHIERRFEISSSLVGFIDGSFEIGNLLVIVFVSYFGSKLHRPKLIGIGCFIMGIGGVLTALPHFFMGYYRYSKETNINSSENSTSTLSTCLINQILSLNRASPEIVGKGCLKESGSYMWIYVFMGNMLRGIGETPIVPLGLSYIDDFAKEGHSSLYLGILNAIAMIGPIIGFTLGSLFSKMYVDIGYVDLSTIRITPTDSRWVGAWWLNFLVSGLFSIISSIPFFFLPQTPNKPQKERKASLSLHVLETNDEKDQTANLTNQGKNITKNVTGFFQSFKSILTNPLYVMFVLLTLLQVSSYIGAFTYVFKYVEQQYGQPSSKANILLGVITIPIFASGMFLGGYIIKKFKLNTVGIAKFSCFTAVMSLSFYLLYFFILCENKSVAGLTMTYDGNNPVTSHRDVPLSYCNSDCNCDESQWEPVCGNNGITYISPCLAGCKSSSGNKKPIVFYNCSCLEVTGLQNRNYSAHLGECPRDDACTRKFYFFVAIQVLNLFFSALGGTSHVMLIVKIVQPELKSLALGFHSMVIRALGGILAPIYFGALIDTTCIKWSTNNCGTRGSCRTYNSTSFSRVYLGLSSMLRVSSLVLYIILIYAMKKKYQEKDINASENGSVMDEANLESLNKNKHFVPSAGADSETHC
The series is classed as in vivo.

The nature of series [5]: Trial 2: treatment-emergent adverse events. The series is classed as in vivo, human.
Series [6] deals with T3, BCRP (Homo sapiens, UniProt Q9UNQ0).
T3 sequence (Q9UNQ0 1-655): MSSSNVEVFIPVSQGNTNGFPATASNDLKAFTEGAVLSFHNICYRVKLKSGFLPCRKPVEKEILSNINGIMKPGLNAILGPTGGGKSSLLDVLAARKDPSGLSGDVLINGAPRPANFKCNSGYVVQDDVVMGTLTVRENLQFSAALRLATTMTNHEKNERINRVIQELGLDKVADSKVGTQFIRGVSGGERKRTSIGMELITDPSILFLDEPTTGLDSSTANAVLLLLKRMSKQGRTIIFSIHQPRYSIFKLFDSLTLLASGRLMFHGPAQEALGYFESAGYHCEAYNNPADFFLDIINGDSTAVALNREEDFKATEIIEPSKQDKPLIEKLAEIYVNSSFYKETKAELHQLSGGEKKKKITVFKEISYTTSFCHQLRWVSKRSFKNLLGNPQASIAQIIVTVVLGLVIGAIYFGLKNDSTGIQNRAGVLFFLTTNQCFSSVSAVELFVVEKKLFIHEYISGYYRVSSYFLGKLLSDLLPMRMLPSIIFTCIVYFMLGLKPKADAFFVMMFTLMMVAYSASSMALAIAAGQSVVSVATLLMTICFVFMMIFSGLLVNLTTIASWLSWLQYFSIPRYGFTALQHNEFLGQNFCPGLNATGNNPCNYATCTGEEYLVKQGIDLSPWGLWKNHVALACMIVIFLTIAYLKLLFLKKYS
In words: Trial 1: clinical DDI, rosuvastatin with TLV vs rosuvastatin alone. The series is classed as in vivo.

Series [7] relates to sodium‐dependent taurocholate co‐transporting polypeptide (NTCP). The settings on record: cited from earlier work.
The nature of series [8]: Trial 1: treatment-emergent adverse events. The class given is in vivo, human.
The conditions of series [9]: cited from earlier work; for Solubility: pH independent.
In series [10] the test system is sandwich‐cultured human hepatocytes. The settings on record: cited from earlier work.
Series [11] deals with T3, BCRP. Nature of the series: Prazosin transport in MDCKII BCRP expressing cells. The settings on record: 90-mg TLV dose (200 µmol) assumed completely soluble in 250 ml.
For series [12] the following is noted: predicted; cited from earlier work.
The mark [13] stands for this setting: rosuvastatin + 90 mg tolvaptan vs rosuvastatin alone, n = 14.
The mark [14] stands for this setting: trial 2, period 2 (TLV alone, 300 mg q.d.).
Where [15] appears, read: trial 1, period 3 (TLV alone, 300 mg q.d.).

Consider `Cc1ccccc1C(=O)Nc1ccc(C(=O)Nc2ccc(Cl)cc2C(=O)CCC(=O)O)c(C)c1` [DM‐4103], for which the Plasma protein binding result in “Plasma protein binding” is on record as “greater than 99.8%”. Besides, the “Time to steady-state concentrations after start of TLV dosing” value in [1] is ~ 8 weeks. At OAT3, the “Clinical inhibition of OAT3” value was “not an inhibitor”. Further, the “Plasma concentration, mean (SD)” value in [2] (trial 1, 48 h postdose after 7 days 300 mg TLV q.d.) is 7240 (1880) ng/ml; in [3], 6430 (2030) ng/ml. For the same compound, the “Mean steady-state plasma concentration” value in series [4] (90 + 30 mg TLV regimen in subjects with ADPKD, ref data on file) was ~ 7500 ng/ml and ~15.7 µM. Further, the Elimination half-life in [4] is ~ 180 h. In addition, the Plasma concentrations result in [4] (first 2 h following a 90 mg TLV dose, ref data on file) is “less than 100 ng/ml”. On OATP1B1 (at clinically relevant concentrations), the “Clinical inhibition of OATP1B1” value is on record as “not an inhibitor”.
With `NS(=O)(=O)c1cc(C(=O)O)c(NCc2ccco2)cc1Cl` [Furosemide, furosemide], the “TEAE incidence: polyuria” value in [5] (trial 2, period 1 (furosemide alone)) is listed as 64.3%. Further, the “TEAE incidence: headache” value in series [5] (trial 2, period 3 (furosemide in presence of DM-4103)) came out at 21.4%.
Turning to `CC(C)c1nc(N(C)S(C)(=O)=O)nc(-c2ccc(F)cc2)c1/C=C/[C@@H](O)C[C@@H](O)CC(=O)O` [ROS, rosuvastatin], at BCRP [6] (rosuvastatin + 90 mg tolvaptan vs rosuvastatin alone, n = 6), the “Geometric mean ratio (90% CI), AUC∞” value was 1.281^a 1.148–1.429. Further, on BCRP [6] (setting [13]), the “Geometric mean ratio (90% CI), AUCt” value is 1.69 and the “Geometric mean ratio (90% CI), Cmax” value was determined as 1.54. Further, the “Share of rosuvastatin uptake accounted for by NTCP alone” value in series [7] (human hepatocyte studies) is ~ 35%. In addition, in [2] (5 mg ROS alone, median (minimum-maximum)), the Tmax is recorded as 3.50 (2.00–6.00) h. In series [2] (human, plasma, oral, 5 mg, AUC∞, 5 mg ROS alone, minimum-maximum, n = 7), this compound showed an AUC(0-inf) of 20.3 to 36 ng·h/mL. In addition, the CL/F in [2] (human, plasma, oral, 5 mg, CL/F, 5 mg ROS alone, minimum-maximum, n = 7) fell in the range of 28.5 to 68.2 mL/min/kg. This compound also showed a half-life in series [2] (human, plasma, oral, 5 mg, t1/2,z, 5 mg ROS alone, minimum-maximum, n = 7) of 2.4 to 4.3 h. Moreover, the “TEAE incidence: nausea” value in series [8] (trial 1, period 1 (rosuvastatin)) came out at 12.5%. In series [8] (trial 1, period 3 (rosuvastatin in presence of DM-4103)), the “TEAE incidence: headache” value is recorded as 14.3%. Further, the “Geometric mean ratio (90% CI), AUC∞” value on OATP1B1 (rosuvastatin in presence of DM-4103 vs rosuvastatin alone, n = 5) is listed as 0.998^b 0.876–1.138.
On to `Cc1ccccc1C(=O)Nc1ccc(C(=O)N2CCCC(O)c3cc(Cl)ccc32)c(C)c1` (stereo not shown) [TLV, Tolvaptan], for which the “Clinical inhibition of BCRP” value at BCRP [6] (90 mg TLV with 5 mg rosuvastatin calcium) was “No clinically relevant inhibition”. The “Increase of in vitro solubility by spray-dried formulation” value in series [9] (TLV tablets, spray-dried technique) is “up to sevenfold”. In addition, the Solubility in series [9] is ~ 0.01 g/250 ml. Moreover, the Solubility entry in [9] (in Discussion) was “about 0.01 mg/250 ml and ~ 0.09 µM”. Also, the NTCP inhibition result in series [7] (IC50 value higher than Cmax) is on record as “inhibitor of NTCP”. Also, in series [5] (setting [14]), the “TEAE incidence: constipation” value is listed as 14.3%, the “TEAE incidence: dizziness” value is reported as 14.3%, the “TEAE incidence: dry mouth” value worked out at 21.4% and the “TEAE incidence: headache” value is given as 14.3%. Also, in [5] (setting [14]), the “TEAE incidence: insomnia” value is on record as 14.3%, the “TEAE incidence: polyuria” value amounted to 100% and the “TEAE incidence: thirst” value came to 92.9%. Also, the “Accumulation in sandwich-cultured human hepatocytes” value in series [10] is “at least 10 fold”. Besides, in series [4] (300 mg TLV for 5 days, healthy subjects), the Safety and tolerability entry is “safe and well‐tolerated”. Also, the half-life entry in [4] was “about 3.5 h”. In series [8] (setting [15]), the “TEAE incidence: constipation” value was 14.3%, the “TEAE incidence: dry mouth” value was determined as 14.3%, the “TEAE incidence: nausea” value is 21.4% and the “TEAE incidence: pollakiuria” value is listed as 71.4%. In addition, the “Predicted concentration of dose in 250 ml (Igut)” value on BCRP [11] is on record as 800 µM. Also, the “Liver:blood ratio” value in series [12] is 38.76.

The term AUC(0-inf) denotes the area under the concentration-time curve extrapolated to infinity. The low end stands for low exposure, the high end for high exposure. For orientation: CL/F means the apparent clearance, not corrected for the fraction that reaches the circulation. Usually half-life stands for the time needed for the level to fall by half in the phase considered.
